Experimental data published in publication PMC6199744, “Development of Chemical Proteomics for the Folateome and Analysis of the Kinetoplastid Folateome” (ACS Infectious Diseases, 2018).

Tested on: L. major lysate proteins
Experiment: Multitargeted bead mixture chemoproteomics, single concentration competition, proteome-wide
Format: binding

In the case of Nc1nc2c(c(=O)[nH]1)N(C=O)C(CNc1ccc(C(=O)N[C@@H](CCC(=O)O)C(=O)O)cc1)CN2 (stereo partly drawn) [LEU, leucovorin], the “fold change relative to vehicle control” value (protein LMJF.35.1220, SHORT CHAIN DEHYDROGENASE, PUTATIVE) is reported as 1.29, the “fold change relative to vehicle control” value (protein LMJF.35.1380, MITOCHONDRIAL PROCESSING PEPTIDASE, BETA SUBUNIT, PUTATIVE) is reported as 0.96 and the “fold change vs vehicle control” value (protein LMJF.35.1830 HY[…], CONSERVED) is reported as 1.03. The “fold change vs vehicle control” value (protein LMJF.35.3340 6-phosphogluconate dehydrogenase) was 1.03, the fold change (protein LMJF.35.3700 GIM5A PROTEIN, PUTATIVE,GLYCOSOMAL MEMBRANE PROTEIN, vehicle control = 1) was 0.87 and the “fold change vs vehicle control” value (protein LMJF.35.3760 60S RIBOSOMAL PROTEIN L27A/L29, PUTATIVE) was 1.05. For the same compound, the “fold change relative to vehicle control” value (protein LMJF.35.3840, […] 2 SUBUNIT, PUTATIVE) was 1.16, the “fold change vs vehicle control” value (protein LMJF.35.3860 T-COMPLEX PROTEIN 1, ETA SUBUNIT, PUTATIVE) was 0.98 and the fold change (protein LMJF.35.4420 MITOCHONDRIAL PHOSPHATE TRANSPORTER, PUTATIVE, vehicle control = 1) was 1. The “fold change relative to vehicle control” value (protein LMJF.35.4880, HYPOTHETICAL PROTEIN, CONSERVED (TPR repeat, putative)) was 1.3, the “fold change relative to vehicle control” value (protein LMJF.35.5330, ISOPENTENYL-D[…]-ISOMERASE, PUTATIVE) was 1.06 and the “fold change relative to vehicle control” value (protein LMJF.36.0070, STRESS-INDUCIBLE PROTEIN STI1 HOMOLOG) was 1.81. For the same compound, the fold change (protein LMJF.36.0480 HYPOTHETICAL PROTEIN, CONSERVED, vehicle control = 1) was 1, the “fold change vs vehicle control” value (protein LMJF.36.0620 HYPOTHETICAL PROTEIN, CONSERVED) was 0.9 and the “fold change vs vehicle control” value (protein LMJF.36.0930 40S RIBOSOMAL PROTEIN S18, PUTATIVE) was 1.19. For the same compound, the “fold change vs vehicle control” value (protein LMJF.36.0990 40S RIBOSOMAL PROTEIN S10, PUTATIVE) was 0.91, the fold change (protein LMJF.36.1140 SHORT CHAIN 3-HYDROXYACYL-COA DEHYDROGENASE, PUTATIVE, vehicle control = 1) was 0.94 and the “fold change relative to vehicle control” value (protein LMJF.36.1260, FRUCTOSE-1,6-BI[…]) was 1.16. The fold change (protein LMJF.36.1340 N-ACETYLTRANSFERASE SUBUNIT NAT1, PUTATIVE, vehicle control = 1) was 0.92, the “fold change vs vehicle control” value (protein LMJF.36.1650 PROTEASOME BETA 5 SUBUNIT, PUTATIVE) was 0.98 and the “fold change relative to vehicle control” value (protein LMJF.36.2380, STEROL 24-C-METHYLTRANSFERASE, PUTATIVE) was 1.04. The “fold change vs vehicle control” value (protein LMJF.36.2950 SUCCINYL-COA LIGASE GDP-FORMING] BETA-CHAIN, PUTATIVE) was 0.96, the “fold change vs vehicle control” value (protein LMJF.36.3210 14-3-3 PROTEIN-LIKE PROTEIN) was 1.08 and the “fold change vs vehicle control” value (protein LMJF.36.3410 SHORT CHAIN DEHYDROGENASE-LIKE PROTEIN) was 0.97. It also gave a fold change (protein LMJF.36.3460 HYPOTHETICAL PROTEIN, CONSERVED (NIPSNAP, putative), vehicle control = 1) of 0.75, a fold change (protein LMJF.36.3580 HYPOTHETICAL PROTEIN, CONSERVED (Protein of unknown function (DUF2009), putative), vehicle control = 1) of 0.85 and a fold change (protein LMJF.36.3750 40S RIBOSOMAL PROTEIN S27-1, PUTATIVE, vehicle control = 1) of 0.85. The “fold change vs vehicle control” value (protein LMJF.36.3910 S-ADENOSYLHOMOCYSTEINE HYDROLASE) was 0.94, the “fold change vs vehicle control” value (protein LMJF.36.5010 40S RIBOSOMAL PROTEIN SA, PUTATIVE) was 1.03 and the “fold change vs vehicle control” value (protein LMJF.36.5130 HY[…], CONSERVED) was 1.01. The “fold change vs vehicle control” value (protein LMJF.36.5150 HYPOTHETICAL PROTEIN, CONSERVED) was 0.93, the “fold change relative to vehicle control” value (protein LMJF.36.5380, NADH DEHYDROGENASE, PUTATIVE) was 1.07 and the “fold change vs vehicle control” value (protein LMJF.36.5390 PHOSPHORIBOSYLPYROPHOSPHATE SYNTHETASE, PUTATIVE) was 0.99. The “fold change vs vehicle control” value (protein LMJF.36.5620 ISOLEUCYL-TRNA SYNTHETASE, PUTATIVE) was 0.94, the fold change (protein LMJF.36.6430 PROTEIN TRANSPORT PROTEIN SEC23-LIKE PROTEIN, vehicle control = 1) was 1.17 and the “fold change vs vehicle control” value (protein LMJF.36.6760 HYPOTHETICAL PROTEIN, CONSERVED) was 0.87. The “fold change relative to vehicle control” value (protein LMJF.[…], MIT[…] BETA SUBUNIT, PUTATIVE) was 1.14, the “fold change relative to vehicle control” value (protein LMJF.[…], POLY(A) EXPORT PROTEIN, PUTATIVE) was 1.24 and the fold change (vs vehicle control, protein LINJ.20.0630 CYTIDINE TRIPHOSPHATE SYNTHASE, PUTATIVE,CTP SYNTHASE, PUTATIVE) was 0.91. The fold change (vs vehicle control, protein LINJ.20.1390 COATOMER BETA SUBUNIT, PUTATIVE) was 0.96, the fold change (vs vehicle control, protein LMJF.05.1140 VACUOLAR ATPASE SUBUNIT-LIKE PROTEIN) was 0.75 and the fold change (vs vehicle control, protein LMJF.07.1090 DELTA-5 FATTY ACID DESATURASE) was 0.88. For the same compound, the fold change (vs vehicle control, protein LMJF.09.0220 HYPOTHETICAL PROTEIN, CONSERVED) was 0.73, the fold change (vs vehicle control, protein LMJF.11.1030 HYPOTHETICAL PROTEIN, CONSERVED) was 0.86 and the fold change (vs vehicle control, protein LMJF.14.0640 FATTY ACID ELONGASE, PUTATIVE) was 0.71. For the same compound, the fold change (vs vehicle control, protein LMJF.14.0705 FATTY ACID ELONGASE, PUTATIVE) was 0.92, the fold change (vs vehicle control, protein LMJF.14.1120 KINESIN K39, PUTATIVE) was 0.96 and the fold change (vs vehicle control, protein LMJF.16.1610 PROHIBITIN) was 1.01. The fold change (vs vehicle control, protein LMJF.17.0010 HYPOTHETICAL PROTEIN, CONSERVED) was 0.94, the fold change (vs vehicle control, protein LMJF.18.1130 RAS-RELATED PROTEIN RAB-5, PUTATIVE) was 0.82 and the fold change (vs vehicle control, protein LMJF.19.1420 CYSTEINE PEPTIDASE A (CPA)) was 0.84. It also gave a fold change (vs vehicle control, protein LMJF.21.0280 HY[…], CONSERVED) of 0.97, a fold change (vs vehicle control, protein LMJF.22.1560 40S RIBOSOMAL PROTEIN L14, PUTATIVE) of 0.93 and a fold change (vs vehicle control, protein LMJF.23.1220 T-COMPLEX PROTEIN 1, GAMMA SUBUNIT, PUTATIVE) of 0.94. The fold change (vs vehicle control, protein LMJF.24.0370 ASPARTATE AMINOTRANSFERASE, PUTATIVE) was 0.99, the fold change (vs vehicle control, protein LMJF.25.1770 ENOYL-COA REDUCTASE, PUTATIVE) was 0.97 and the fold change (vs vehicle control, protein LMJF.26.0170 60S RIBOSOMAL PROTEIN L7, PUTATIVE) was 0.85. For the same compound, the fold change (vs vehicle control, protein LMJF.26.1550 TRI[…] ALPHA SUBUNIT, MIT[…]-LIKE PROTEIN) was 1.09, the fold change (vs vehicle control, protein LMJF.26.1610 PROLINE OXIDASE, MITOCHONDRIAL PRECURSOR-LIKE PROTEIN) was 0.79 and the fold change (vs vehicle control, protein LMJF.28.1950 X-PRO, DIPEPTIDYL-PEPTIDASE,SERINE PEPTIDASE, CLAN SC, FAMILY S15, PUTATIVE) was 0.96. For the same compound, the fold change (vs vehicle control, protein LMJF.31.1070 BIOTIN/LIPOATE PROTEIN LIGASE-LIKE PROTEIN) was 0.88, the fold change (vs vehicle control, protein LMJF.32.1370 HY[…], CONSERVED) was 0.92 and the fold change (vs vehicle control, protein LMJF.34.0490 IMPORTIN BETA-1 SUBUNIT, PUTATIVE) was 1.14. For the same compound, the fold change (vs vehicle control, protein LMJF.34.4060 UBIQUITIN HYDROLASE, PUTATIVE,CYSTEINE PEPTIDASE, CLAN CA, FAMILY C19, PUTATIVE) was 0.88, the fold change (vs vehicle control, protein LMJF.36.1600 PROTEASOME ALPHA 1 SUBUNIT, PUTATIVE) was 0.98 and the fold change (vs vehicle control, protein LMJF.[…] RIBOSOMAL PROTEIN S7, PUTATIVE) was 0.99.
